Values joined by “and” are separate entries in the source; they are usually repeats but may differ in a detail not shown here. Equal values may be shown once. Read-outs that look alike come from different tables or passages of the source.
Test: Stability and biodistribution of prodrugs in vivo (HPLC of plasma and tissues)
Parameters: species or system mice (CD-1 nude; BALB/C where indicated)
Conditions: 50 mg/kg i.p. or i.v., CD-1 nude mice; for remaining at 0.5 h / remaining at 2 h / concentration at 2 h / concentration at 0.5 h: mouse
[1] = LARGE INTESTINE, 30 min, 50 mg/kg
[2] = LIVER, 120 min, listed as 552W92, 50 mg/kg
[3] = kidney, 50 mg/kg, KIDNEY, 30 min, read-out: stability: percentage of material observed as intact prodrug, kidney
[4] = kidney, 50 mg/kg, KIDNEY, 120 min, read-out: stability: percentage of material observed as intact prodrug, kidney
[5] = large intestine, 50 mg/kg, LARGE INTESTINE, 30 min, read-out: stability: percentage of material observed as intact prodrug, large intestine
[6] = large intestine, 50 mg/kg, LARGE INTESTINE, 120 min, read-out: stability: percentage of material observed as intact prodrug, large intestine
[7] = liver, 50 mg/kg, LIVER, 30 min, read-out: stability: percentage of material observed as intact prodrug, liver (converted)
[8] = liver, 50 mg/kg, LIVER, 120 min, read-out: stability: percentage of material observed as intact prodrug, liver
[9] = plasma, 50 mg/kg, PLASMA, 30 min, read-out: stability: percentage of material observed as intact prodrug, plasma
[10] = plasma, 50 mg/kg, PLASMA, 120 min, read-out: concentration of prodrug in plasma
[11] = small intestine, 50 mg/kg, SMALL INTESTINE, 30 min, read-out: stability: percentage of material observed as intact prodrug, small intestine
[12] = small intestine, 50 mg/kg, SMALL INTESTINE, 120 min, read-out: stability: percentage of material observed as intact prodrug, small intestine
[13] = spleen, 50 mg/kg, SPLEEN, 30 min, read-out: stability: percentage of material observed as intact prodrug, spleen
[14] = spleen, 50 mg/kg, SPLEEN, 120 min, read-out: stability: percentage of material observed as intact prodrug, spleen
[15] = cecum, 50 mg/kg, CECUM, 30 min, read-out: stability: percentage of material observed as intact prodrug, cecum
[16] = cecum, 50 mg/kg, CECUM, 120 min, read-out: stability: percentage of material observed as intact prodrug, cecum
[17] = plasma, 50 mg/kg, PLASMA, 30 min, read-out: concentration of prodrug in plasma
[18] = plasma, 50 mg/kg, PLASMA, 120 min, read-out: stability: percentage of material observed as intact prodrug, plasma
[19] = tumor, 50 mg/kg, TUMOR, 30 min, read-out: stability: percentage of material observed as intact prodrug, tumor
[20] = tumor, 50 mg/kg, TUMOR, 120 min, read-out: stability: percentage of material observed as intact prodrug, tumor

Structure (SMILES) | concentration of prodrug in small intestine (SMALL INTESTINE, 30 min) [nmol/g] | concentration of prodrug in small intestine (SMALL INTESTINE, 120 min) [nmol/g] | remaining at 0.5 h [3] [%] | remaining at 2 h [4] [%] | remaining at 0.5 h [5] [%] | remaining at 2 h [6] [%] | remaining at 0.5 h [7] [%] | remaining at 2 h [8] [%] | remaining at 0.5 h [9] [%] | concentration at 2 h [10] [µM] | remaining at 0.5 h [11] [%] | remaining at 2 h [12] [%] | remaining at 0.5 h [13] [%] | remaining at 2 h [14] [%] | concentration of prodrug in cecum (CECUM, 30 min) [nmol/g] | concentration of prodrug in cecum (CECUM, 120 min) [nmol/g] | concentration of prodrug in kidney (KIDNEY, 30 min) [nmol/g] | concentration of prodrug in kidney (KIDNEY, 120 min) [nmol/g] | concentration of prodrug in large intestine (LARGE INTESTINE, 30 min) [nmol/g] | concentration of prodrug in large intestine (LARGE INTESTINE, 120 min) [nmol/g] | other results
Cc1nc2ccc3ccc(CNc4ccc(C(=O)N[C@@H](CCC(=O)O)C(=O)N[C@@H](Cc5cccc6ccccc56)C(=O)O)c(F)c4)cc3c2c(=O)[nH]1 [Prodrug 3, N-(N-(2-fluoro-4-(((1,2-dihydro-3-methyl-1-oxobenzo(F)quinazolin-9-yl)methyl)amino)benzoyl)-L-glutam-1-yl)-3-(1-naphthyl)-L-alanine] | 27.7 | 1.8 | 82 | 74 | 87 | 89 | 79 | 74 | 93 | 5.1 | 10 | 1 | 95 | 89 | – | – | – | – | – | – | concentration of prodrug in kidney (KIDNEY, 30 min, 50 mg/kg): 41.7 nmol/g and 29.2 nmol/g; concentration of prodrug in large intestine [1]: 23.4 nmol/g and 14.9 nmol/g; stability: percentage of material observed as intact prodrug, large intestine [1]: 94%; concentration of prodrug in large intestine (LARGE INTESTINE, 120 min, listed as 552W92, 50 mg/kg): 1.7 nmol/g and 1.1 nmol/g; concentration of prodrug in liver (LIVER, 30 min, 50 mg/kg): 128.8 nmol/g and 135.3 nmol/g; concentration of prodrug in liver [2]: 267.9 nmol/g and 371.2 nmol/g; stability: percentage of material observed as intact prodrug, liver [2]: 90%; stability: percentage of material observed as intact prodrug, plasma (PLASMA, 120 min, listed as 552W92, 50 mg/kg): 48%; concentration (PLASMA, 120 min, listed as 552W92, 50 mg/kg, 120 min, read-out: concentration of prodrug in plasma): 2.8 µM; stability: percentage of material observed as intact prodrug, spleen (SPLEEN, 30 min, 50 mg/kg): 100%; stability: percentage of material observed as intact prodrug, spleen (SPLEEN, 120 min, listed as 552W92, 50 mg/kg): 100%
Cc1nc2ccc3ccc(CNc4ccc(C(=O)N[C@@H](CCC(=O)O)C(=O)N[C@@H](Cc5ccccc5C(=O)O)C(=O)O)c(F)c4)cc3c2c(=O)[nH]1 [Prodrug 4, N-(N-(4(((1,2-dihydro-3-methyl-1-oxobenzo(F)quinazolin-9-yl)methyl)amino)-2-fluorobenzoyl)-L-glutam-1-yl)-2-carboxy-L-phenylanine] | 188.1 | 69.1 | 100 | 99 | 100 | 100 | 99 | 98 | 100 | 1.4 | 99 | 98 | 99 | – | 6.7 | 1.3 | 94.5 | 14.5 | 25.3 | 45.4 | concentration of prodrug in liver (LIVER, 30 min): 343.4 nmol/g; concentration of prodrug in liver (LIVER, 120 min): 33.3 nmol/g; concentration of prodrug in spleen (SPLEEN, 30 min): 30.9 nmol/g; concentration of prodrug in tumor (TUMOR, 30 min): 6.7 nmol/g; concentration of prodrug in tumor (TUMOR, 120 min): 1.3 nmol/g; remaining at 0.5 h [15]: 100%; remaining at 2 h [16]: 100%; concentration at 0.5 h [17]: 71.4 µM; remaining at 2 h [18]: 99%; remaining at 0.5 h [19]: 100%; remaining at 2 h [20]: 100%
Cc1nc2ccc3ccc(CNc4ccc(C(=O)N[C@@H](CCC(=O)O)C(=O)N[C@@H](Cc5ccccc5I)C(=O)O)c(F)c4)cc3c2c(=O)[nH]1 [Prodrug 5] | 32.1 | 1.6 | 83 | 96 | 93 | 8 | 81 | 41 | 98 | 9.4 | 40 | 2 | 85 | 81 | 4.7 | 2.9 | 42.5 | 3.0 | 28.4 | 1.6 | concentration of prodrug in liver (LIVER, 30 min): 118.2 nmol/g; concentration of prodrug in liver (LIVER, 120 min): 7.5 nmol/g; concentration of prodrug in spleen (SPLEEN, 30 min): 34.3 nmol/g; concentration of prodrug in spleen (SPLEEN, 120 min): 3.2 nmol/g; concentration of prodrug in tumor (TUMOR, 30 min): 4.7 nmol/g; concentration of prodrug in tumor (TUMOR, 120 min): 2.9 nmol/g; remaining at 0.5 h [15]: 95%; remaining at 2 h [16]: 88%; concentration at 0.5 h [17]: 115 µM; remaining at 2 h [18]: 95%; remaining at 0.5 h [19]: 95%; remaining at 2 h [20]: 88%

Reference: patent US6319702A, “Nucleic acids encoding mutant human carboxypeptidase A enzymes” (Glaxo Wellcome, Inc., priority 1993, dated 2001)
